We go through one compound from patent publication US11583507B2, “Direct AMPK activator compounds” (SOCIETE DES PRODUITS NESTLE S.A., priority 2018, dated 2023).

For assay [1], the system named is AMPK α2β1γ1 ΔCBM mutant (211 ΔCBM). In words: AMPK in vitro activity assay (HTRF-KinEASE), ΔCBM mutant. It counts as biochemical. The settings on record: carbohydrate-binding module deleted. Here is the method:
(§1) Lusianthridin (CAS 87530-30-1) was isolated from Thunia alba fruit. It was sourced from Analyticon (NP-012362). The plant was purchased through Analyticon's biomaterial supplier in 2003. The country of origin is Nepal. The AMPK heterotrimers were expressed in bacteria and purified through the His-α subunit by nickel purification. AMPK complexes were purified through gel filtration and phosphorylated by incubation with CaMKKβ, and further purified with a final gel filtration purification step. Phosphorylated purified AMPK was incubated with varying concentrations of ligand for 30 mins using substrate and reagents from the HTRF-KinEASE Cisbio assay kit (STK S1 Kit). Phosphorylation of the substrate was measured by incubating with donor and acceptor antibodies for 2 h at room temperature as per the manufacturer's protocol (and Coulerie et al., (2016) PMID: 27792327) and phosphorylated peptide detected by performing HTRF. The 665 nm/620 nm ratio was determined and the results are plotted as fold activation compared to the respective AMPK complex without any compound.
(In TR-FRET formats the signal depends on donor and acceptor labels being close together.)

The subject of assay [2] is AMPK β1 S108A mutant (phosphorylation of ACC). The assay can be described thus: pACC (HTRF and western blot) in AMPKβ1/β2 double knockout U2-OS Flp-In T-Rex cells stably expressing β1 S108A mutant. It counts as cell-based, human. The source says:
(§2) AMPKβ1/β2 double knockout U2-OS Flp-In™ T-Rex™ cell lines were generated by Horizon Discovery (Cambridge, UK). Cells were genotyped and analysed by western blotting to confirm that there was a complete knockout of AMPKβ1/β2. We took these AMPKβ1/β2 double knockout cells, and re-introduced the expression of human β1 wild-type (WT) or a β1 Serine 108 to alanine mutation (S108A). This was achieved using the Flp-In™ system (Invitrogen) present in this cell line and stable cells expressing β1 WT or a β1 S108A mutant were generated according to the manufacturers' protocols. Re-expression of the β1 subunit was confirmed by western blot analysis.
(§3) Cells stably expressing β1 WT or a β1 S108A mutant were treated with varying concentrations of Lusianthridin and subjected to the pACC HTRF (Cisbio) assay or western blot analysis to determine phosphorylation of the AMPK substrate, ACC, in cells lysates. Western blots were quantified using the LI-COR odyssey system and shown as the ratio of the antibody signal from pACC divided by total ACC.

In another assay the test system is AMPK substrate, ACC. The assay can be described thus: pACC HTRF assay in mouse primary hepatocytes. It counts as cell-based. The following applies: 1 h incubation at 37 C, dose-dependent. Here is the method: Hepatocyte isolation: The liver was first perfused with 50 ml perfusion buffer (Krebs-Hepes buffer with […] EDTA), followed with 50 ml collagenase A buffer (Krebs-Hepes buffer with 5 mM CaCl2 and 0.5 mg/ml collagenase). […] Hepatocytes were left to attach (3-4 h) and cultured overnight in M199 supplemented with antibiotics and 100 nM dexamethasone. Cells were used for experiments the following morning. Primary hepatocytes were seeded at 15 K cells in a 96-well plate overnight. Cells were treated for 1 h with varying concentrations of Lusianthridin in media and then cells were lysed in 50 μl of Cisbio lysis buffer #1 supplemented with blocking solution as per the manufacturer's protocol (Cisbio). Cells were lysed for 30 mins at room temperature before 16 μl of lysate was incubated with 4 μl of the HTRF antibodies. Lysates were incubated overnight with the antibody before 665 nm/620 nm ratio was determined using a MolecularDevices i3 plate reader (with a HTRF cartridge add-on).

For assay [3], the system named is AMPK substrate, acetyl-CoA carboxylase (ACC). The assay can be described thus: Western blot of pACC / total ACC in U2OS Flp-In T-REx lysates. It counts as cell-based. The following applies: varying concentrations. Here is the method: U2OS Flp-In T-REx cells were seeded at 100 K in a 96-well plate and left overnight at 37 C in DMEM GlutaMAX (Thermo Fisher Scientific) supplemented with 10% (vol/vol) FBS and 100 U/ml penicillin G, and 100 μg/ml streptomycin. Cells were treated for 1 h with varying concentrations of Lusianthridin in media lacking FBS and then cells were lysed in 50 μl of Cisbio lysis buffer #1 supplemented with blocking solution as per the manufacturer's protocol (Cisbio). Cells were lysed for 30 mins at room temperature before 16 μl of lysate was incubated with 4 μl of the HTRF antibodies (1:40 dilution of the acceptor and donor (p)ACC antibodies, as per the manufacturers protocol). Lysates were incubated overnight with the antibodies before 665 nm/620 nm ratio was determined using a MolecularDevices i3 plate reader (with a HTRF cartridge add-on). For western blot analysis, SDS-sample buffer was added to the remainder of the lysate, denatured at 95 C and then subjected to western blot analysis with phospho-specific and total ACC antibodies (Cell Signalling). Bands were visualized by incubating with Li-Cor secondary antibody and scanned on a Li-Cor Odyssey machine.
(Immunoblotting shows a protein as a band on a membrane.)

A further assay deals with T1, AMPKα1β1γ1 (111) (Homo sapiens, UniProt P54619+Q13131+Q9Y478).
T1 construct: His; made in house; host or cells: bacteria
In words: AMPK in vitro activity assay (HTRF-KinEASE), α1-containing complex. The assay is classed as biochemical. The following applies: fold activation vs complex without compound. As to the method: as §1

In a further assay the test system is C2C12 AMPKα1α2−/− cells. In words: Glucose uptake (3H-2-deoxyglucose) in differentiated C2C12 AMPKα1α2−/− cells. The assay is classed as cell-based, murine. The following applies: 30 or 100 μM Lusianthridin, 300 nM Insulin, 1 h at 37° C. The text has this: C2C12 AMPK α1α2 double knockout cell lines were generated by transient transfection of wild type cells with plasmids containing Cas9 enzyme linked to green fluorescent protein expression and Cas9 guide RNA sequences targeting the murine AMPK α1 subunit (sc-430618, SantaCruz) and the murine AMPK α2 subunit (sc-430803, SantaCruz). Cells positive for green fluorescent protein expression were single cell sorted by flow cytometry into 96-well plates containing growth medium and analysed for loss of AMPK signaling following expansion of the clones.
Differentiated C2C12 AMPKα1α2+/+ and AMPKα1α2−/− cells were treated with either vehicle (0.2% DMSO), 30 μM or 100 μM Lusianthridin for 1 h at 37° C. […] Finally, differentiated C2C12 AMPKα1α2+/+ and AMPKα1α2−/− cells were treated with either vehicle (0.2% DMSO) or 100 μM Lusianthridin in the presence or absence of 15 nM Wortmanin for 1 h at 37° C. For the Wortmanin experiments, differentiated C2C12 cells were pre-incubated with DMSO or Wortmanin for 1 h prior to treatment.
Glucose uptake was determined by monitoring the uptake of 3H-2-deoxyglucose into cells. C2C12 AMPKα1α2+/+ and AMPKα1α2−/− cells were maintained in DMEM GlutaMAX supplemented with 20% (vol/vol) FBS and 100 U/ml penicillin G, and 100 μg/ml streptomycin. […] Cells were lysed and the quantity of ^3H determined in these samples using a scintillation counter.

Assay [4] concerns AMPK β1 WT (phosphorylation of ACC). In words: pACC (HTRF and western blot) in AMPKβ1/β2 double knockout U2-OS Flp-In T-Rex cells stably expressing β1 WT. It counts as cell-based, human.
Source text: as §2, §3

The mark [5] stands for this setting: varying concentrations, 30 mins at 37 C.

T1 sequence (Q13131 whole entry): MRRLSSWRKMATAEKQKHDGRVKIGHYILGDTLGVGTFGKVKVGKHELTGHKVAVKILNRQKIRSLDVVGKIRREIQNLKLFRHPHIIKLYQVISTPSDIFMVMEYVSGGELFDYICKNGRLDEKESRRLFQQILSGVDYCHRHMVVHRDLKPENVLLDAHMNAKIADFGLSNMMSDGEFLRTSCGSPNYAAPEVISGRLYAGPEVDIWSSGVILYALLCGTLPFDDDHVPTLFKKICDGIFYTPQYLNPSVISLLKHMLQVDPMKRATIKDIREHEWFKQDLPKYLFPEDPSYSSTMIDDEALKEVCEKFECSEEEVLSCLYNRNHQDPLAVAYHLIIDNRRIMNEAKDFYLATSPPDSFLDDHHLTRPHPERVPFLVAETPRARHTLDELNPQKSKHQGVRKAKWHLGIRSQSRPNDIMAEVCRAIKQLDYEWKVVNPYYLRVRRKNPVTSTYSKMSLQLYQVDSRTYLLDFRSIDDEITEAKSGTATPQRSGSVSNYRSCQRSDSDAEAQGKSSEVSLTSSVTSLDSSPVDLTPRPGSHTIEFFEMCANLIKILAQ
T1 sequence (Q9Y478 whole entry): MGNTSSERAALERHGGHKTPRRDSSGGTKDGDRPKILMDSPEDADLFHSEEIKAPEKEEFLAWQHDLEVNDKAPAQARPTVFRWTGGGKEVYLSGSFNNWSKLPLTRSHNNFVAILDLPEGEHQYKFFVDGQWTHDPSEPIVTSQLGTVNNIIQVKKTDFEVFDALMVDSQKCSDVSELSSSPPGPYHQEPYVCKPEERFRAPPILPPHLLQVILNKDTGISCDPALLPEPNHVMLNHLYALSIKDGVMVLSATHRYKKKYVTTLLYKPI
T1 sequence (P54619 whole entry): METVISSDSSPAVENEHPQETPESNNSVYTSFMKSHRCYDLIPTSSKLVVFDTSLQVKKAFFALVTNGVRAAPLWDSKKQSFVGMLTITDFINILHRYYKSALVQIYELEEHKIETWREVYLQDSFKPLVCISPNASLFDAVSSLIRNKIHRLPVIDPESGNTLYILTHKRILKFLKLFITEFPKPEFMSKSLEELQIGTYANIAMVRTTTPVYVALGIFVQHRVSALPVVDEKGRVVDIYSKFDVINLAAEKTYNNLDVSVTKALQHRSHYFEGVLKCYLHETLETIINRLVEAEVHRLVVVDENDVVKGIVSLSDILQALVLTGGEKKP

Turning to `COc1cc(O)c2c(c1)CCc1cc(O)ccc1-2` [Lusianthridin, 7-Methoxy-9,10-dihydrophenanthrene-2,5-diol], the “activation of α2β1γ1 ΔCBM mutant” value in assay [1] is “does not activate”. For the same compound, the “phosphorylation of ACC (western blot)” value in assay [2] is “did not increase phosphorylation of ACC”. In addition, the figures for the “pACC (HTRF assay)” value in assay [2] (setting [5]) and in assay [4] (setting [5]) were “did not increase pACC” and “capable of activating”, respectively. Also, the “phosphorylation of the AMPK substrate ACC (pACC HTRF)” value with AMPK substrate, ACC is recorded as “increases”. Moreover, the “phosphorylation of ACC by western blot (AMPK activation in cells)” value in assay [3] is given as “activates AMPK in cells”. At AMPKα1β1γ1 (111), the “activation of bacterially-expressed AMPKα1β1γ1 complexes” value is recorded as “Activates”. The “glucose uptake (fold change relative to control)” value with C2C12 AMPKα1α2−/− cells is “abolished”. In assay [4] (FIGS. 19 and 20), the “pACC (HTRF and western blot, pACC/total ACC)” value is given as “dose-dependently increase pACC”.
